The source made the active and inactive calls.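 How the source made its calls: active means mean EC50 below 10 µM; inactive means the rest.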
These compounds were tested against Apelin receptor (Homo sapiens) (UniProt P35414) (assay: APJ agonists, beta-arrestin recruitment, SAR follow-up, cell-based, luminescence, set 2 (AID 488985)). Conditions: CHO-K1 AGTRL-1 PathHunter beta-arrestin.
Apelin receptor (Homo sapiens), sequence (P35414 whole entry, looked up): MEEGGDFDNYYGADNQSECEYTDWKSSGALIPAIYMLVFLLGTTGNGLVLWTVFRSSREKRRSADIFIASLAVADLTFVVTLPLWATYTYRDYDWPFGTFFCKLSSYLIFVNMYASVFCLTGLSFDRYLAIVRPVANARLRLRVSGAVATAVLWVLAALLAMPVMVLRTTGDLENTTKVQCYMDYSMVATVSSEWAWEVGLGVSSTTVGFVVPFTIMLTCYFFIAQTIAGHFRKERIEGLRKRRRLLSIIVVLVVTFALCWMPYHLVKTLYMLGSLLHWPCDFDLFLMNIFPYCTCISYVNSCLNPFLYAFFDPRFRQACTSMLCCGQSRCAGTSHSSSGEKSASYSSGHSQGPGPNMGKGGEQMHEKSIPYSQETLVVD

Row | EC50 | SMILES
1 | 6.07 µM | CC1=CC(=NOS(=O)(=O)c2ccccc2)C(C)=CC1=O
2 | inactive | CCOc1cc2[nH]c(=S)n(CCCC(=O)NCc3ccccn3)c(=O)c2cc1OCC
3 | 11.9 µM | CC1=C/C(=N/OS(=O)(=O)c2ccccc2)C(C(C)C)=CC1=O
4 | > 79 µM (inactive) | CCOc1cc2[nH]c(=S)n(CCN3CCC(C)CC3)c(=O)c2cc1OCC
5 | inactive | CCCCN(C)CCn1c(=S)[nH]c2cc(OCC)c(OCC)cc2c1=O
6 | 4.42 µM | CCN1C(c2ccccc2)=C(c2ccccc2)S/C1=C\C=C1/SC(=S)N(C)C1=O
7 | 13.1 µM | CC(C)C1=CC(=NOS(=O)(=O)c2ccccc2)C=C(C(C)C)C1=O
8 | > 79 µM (inactive) | CC1=CC(=O)C=C/C1=N/OS(=O)(=O)c1ccc(C)cc1
9 | 4.2 µM | CC1=CC(=O)C(C(C)(C)C)=C/C1=N/OS(=O)(=O)c1ccccc1
10 | > 79 µM (inactive) | Cc1cc(C)n2nc3nc(N4CCCCC4)nc(-c4ccccc4)c3c2n1
11 | > 79 µM (inactive) | CCOc1ccc(S(=O)(=O)Nc2nc(-c3ccccc3)cs2)cc1
12 | inactive | CCOc1cc2[nH]c(=S)n(CCN3CCCCC3CC)c(=O)c2cc1OCC (configuration not stated)
13 | > 79 µM (inactive) | CCc1nnc(NC(=O)CSc2nc3cccnc3n2Cc2ccccc2)s1
14 | inactive | CCc1nnc(NC(=O)CSc2nc3cccnc3n2C2CCCCC2)s1
15 | > 79 µM (inactive) | CCN1C(=O)/C(=C/C=C2/Sc3ccccc3N2CC)SC1=S
16 | > 79 µM (inactive) | Cc1cc(O)c(C2CCCCC2)cc1N=O
17 | > 79 µM (inactive) | CCN1C(=O)/C(=C/C=C2/SC(c3ccccc3)=C(c3ccccc3)N2CC)SC1=S
